Experimental data from ChEMBL document CHEMBL6134904, “Discovery of Potent PDEδ/NAMPT Dual Inhibitors: Preclinical Evaluation in KRAS Mutant Pancreatic Cancer Cells” (J Med Chem, 2025).
pIC50, pKd: −log10 of the molar value.

Legend:
HCT-116 [1] = test: cells; conditions: Homo sapiens, HCT-116, 72 h
Description: Antiproliferative activity against human HCT-116 cells assessed as inhibition of cell growth incubated for 72 hrs by CCK8 assay

A549 [2] = test: cells; conditions: Homo sapiens, A549, 72 h
Description: Antiproliferative activity against human A549 cells assessed as inhibition of cell growth incubated for 72 hrs by CCK8 assay

[3] = target: Nicotinamide phosphoribosyltransferase (Homo sapiens, UniProt P43490)
Description: Inhibition of NAMPT (unknown origin) using NAM as substrate preincubated for 5 mins followed by substrate addition and measured after 15 mins by fluorescence based microtiter plate reader analysis

MIA PaCa-2 [4] = test: cells; conditions: Homo sapiens, MIA PaCa-2, 72 h
Description: Antiproliferative activity against human MIA PaCa-2 cells assessed as inhibition of cell growth incubated for 72 hrs by CCK8 assay

A549 [5] = test: Antiproliferative activity against human A549 cells assessed as inhibition of cell growth incubated for 72 hrs in presence of 1-(4-(piperidin-1-ylsulfonyl)phenyl)-3-(pyridin-3-ylmethyl)thiourea by CCK8 assay; assay type: functional, cell-based; conditions: A549, 72 h
MIA PaCa-2 [6] = test: Antiproliferative activity against human MIA PaCa-2 cells assessed as inhibition of cell growth incubated for 72 hrs in presence of 1-(4-(piperidin-1-ylsulfonyl)phenyl)-3-(pyridin-3-ylmethyl)thiourea by CCK8 assay; assay type: functional, cell-based; conditions: MIA PaCa-2, 72 h
MIA PaCa-2 [7] = test: Synergistic antiproliferative activity against human MIA PaCa-2 cells harboring KRAS G12C mutant assessed as inhibition of cell growth by measuring combination index at 1:2 molar ratio of test compound:1-(4-(piperidin-1-ylsulfonyl)phenyl)-3-(pyridin-3-ylmethyl)thiourea by chou-talalay method; assay type: functional
MIA PaCa-2 [8] = test: Antitumor activity against human MIA PaCa-2 cells xenografted in female BALB/C nude mouse assessed as tumor growth inhibition at 20 mg/kg, ip co-administered with 1-(4-(piperidin-1-ylsulfonyl)phenyl)-3-(pyridin-3-ylmethyl)thiourea once daily for 21 days relative to control; assay type: functional; conditions: MIA PaCa-2, 504 h, time 21 day, read-out: TGI
[9] = target: Retinal rod rhodopsin-sensitive cGMP 3',5'-cyclic phosphodiesterase subunit delta (Homo sapiens, UniProt O43924)
HCT-116 [10] = test: Antiproliferative activity against human HCT-116 cells assessed as inhibition of cell growth incubated for 72 hrs in presence of 1-(4-(piperidin-1-ylsulfonyl)phenyl)-3-(pyridin-3-ylmethyl)thiourea by CCK8 assay; assay type: functional, cell-based; conditions: HCT-116, 72 h
MIA PaCa-2 [11] = test: Antitumor activity against human MIA PaCa-2 cells xenografted in female BALB/C nude mouse assessed as tumor growth inhibition at 20 mg/kg, ip administered once daily for 21 days relative to control; conditions: MIA PaCa-2, 504 h, read-out: TGI

Sequence of Nicotinamide phosphoribosyltransferase (P43490 whole entry): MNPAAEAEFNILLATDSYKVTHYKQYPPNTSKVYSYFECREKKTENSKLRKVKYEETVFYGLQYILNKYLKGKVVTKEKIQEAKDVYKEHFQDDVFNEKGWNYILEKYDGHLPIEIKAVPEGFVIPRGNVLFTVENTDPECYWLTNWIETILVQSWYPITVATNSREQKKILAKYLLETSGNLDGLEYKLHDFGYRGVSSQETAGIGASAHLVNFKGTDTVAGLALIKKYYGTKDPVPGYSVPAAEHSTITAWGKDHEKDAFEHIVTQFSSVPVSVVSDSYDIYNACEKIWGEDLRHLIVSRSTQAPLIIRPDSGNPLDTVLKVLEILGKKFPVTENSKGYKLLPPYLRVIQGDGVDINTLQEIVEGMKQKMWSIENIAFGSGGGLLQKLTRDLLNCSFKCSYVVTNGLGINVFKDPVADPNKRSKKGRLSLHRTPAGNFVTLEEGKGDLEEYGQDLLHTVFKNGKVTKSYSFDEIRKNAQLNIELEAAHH
Sequence of Retinal rod rhodopsin-sensitive cGMP 3',5'-cyclic phosphodiesterase subunit delta (O43924 whole entry): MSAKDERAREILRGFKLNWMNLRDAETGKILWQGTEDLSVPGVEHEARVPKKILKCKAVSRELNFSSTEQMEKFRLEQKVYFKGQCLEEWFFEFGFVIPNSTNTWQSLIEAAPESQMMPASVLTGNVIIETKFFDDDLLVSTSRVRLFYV

Row | pIC50 (HCT-116 [1]) | pIC50 (A549 [2]) | pIC50 [3] | pIC50 (MIA PaCa-2 [4]) | pIC50 (A549 [5]) | pIC50 (MIA PaCa-2 [6]) | pKd [9] | pIC50 (HCT-116 [10]) | SMILES | CI (MIA PaCa-2 [7]) | inhibition in vivo at 20 mg/kg (MIA PaCa-2 [8]) | inhibition in vivo at 20 mg/kg (MIA PaCa-2 [11])
1 | 6.15 | 7.85 | 6.58 | 7.44 |  |  |  |  | O=C(/C=C/c1cccnc1)Nc1ccc(S(=O)(=O)N(Cc2ccc(Cl)cc2)C2CCCC2)cc1 |  |  | 
2 | 5.16 | < 4.70 |  | < 4.70 | 7.41 | 6.89 | 8.29 | 6.63 | Cc1ccc(-n2nc3c(=O)n(CCC(=O)N4CCC(N5C(=O)c6ccccc6NC5c5ccccc5F)CC4)nc(C)c3c2C)cc1 (centres undefined) | <1 | 44.1% | 26.8%
